These are literature values, as cited in patent US20100111883A1, “CYCLODEXTRIN FORMULATIONS” (priority 2007, published 2010).

For series [1] the following is noted: HPBCD alone, through the skin; stated as typical.

Consider `CC(O)COC[C@H]1O[C@@H]2O[C@H]3[C@H](O)[C@@H](O)[C@@H](O[C@H]4[C@H](O)[C@@H](O)[C@@H](O[C@H]5[C@H](O)[C@@H](O)[C@@H](O[C@H]6[C@H](O)[C@@H](O)[C@@H](O[C@H]7[C@H](O)[C@@H](O)[C@@H](O[C@H]8[C@H](O)[C@@H](O)[C@@H](O[C@H]1[C@H](O)[C@H]2O)O[C@@H]8COCC(C)O)O[C@@H]7COCC(C)O)O[C@@H]6COCC(C)O)O[C@@H]5COCC(C)O)O[C@@H]4COCC(C)O)O[C@@H]3COCC(C)O` (stereo partly drawn) [HPBCD, β-cyclodextrin, 2-hydroxypropyl ether], for which the water solubility result is reported as “freely water soluble”. Moreover, in series [1], the skin penetration entry is recorded as “about 0.1%”.
